{
  "source": "patent US6420373B1",
  "about": "“9-N-Bicyclic nuceoside agents useful as selective inhibitors of proinflammatory cytokines” (Merrell Pharmaceuticals Inc., priority 1993, dated 2002)",
  "key": {"TNF-α": {"tested_on": "TNF-α", "test": "LPS-stimulated human monocyte-derived macrophage TNF-α inhibition assay", "assay_type": "cell-based", "settings": "18 hours of culture", "description": "Monocyte-derived macrophages stimulated with bacterial lipopolysaccharide (LPS) produce high levels of TNF-α (25.8+4.2 ηg/mL) during 18 hours of culture."}, "[1]": {"tested_on": "D-galactosamine animal model of septic shock", "test": "D-galactosamine animal model of septic shock (protection against lethal effects of LPS)", "assay_type": "in vivo", "settings": "treated about 1 hour before i.p. challenge of D-galactosamine and LPS, by 18 hours after challenge, test compound 100 mg/kg i.p."}},
  "note": "Where a name gives a salt, the structure may show the parent alone.",
  "data": [
    {"smiles": "Nc1ncnc2c1ncn2[C@H]1CC[C@H]2[C@@H]1CC[C@H]2O", "note": "(racemic) [(±)-Exo-2-adenyl-endo-6-hydroxybicyclo[3,3,0]octane Dihydrochloride]", "values": [
      {"measurement": "IC50", "setting": "TNF-α; monocyte-derived macrophages from human peripheral blood, LPS-stimulated, dose response 100 μM-0.1 μM, read-out: IC50 for inhibiting TNF-α levels", "value": 143, "unit": "nM"},
      {"measurement": "protection", "setting": "[1]; mice", "value": 100, "unit": "%"},
      {"measurement": "mice killed", "setting": "[1]", "value": "0 out of 8"}
    ]},
    {"smiles": "CC(=O)CCCCn1c(=O)c2c(ncn2C)n(C)c1=O", "note": "[Pentoxifylline, reference compound]", "values": [
      {"measurement": "inhibition at 50 µM", "setting": "TNF-α; Homo sapiens, at 50 μM, LPS-stimulated monocyte-derived macrophages, read-out: inhibition of TNF-α levels", "value": 73.5, "unit": "%"}
    ]}
  ]
}
